# Assay results published in ChEMBL document CHEMBL1136555, “Antitumour benzothiazoles. Part 20: 3'-cyano and 3'-alkynyl-substituted 2-(4'-aminophenyl)benzothiazoles as new potent and selective analogues” (Bioorg Med Chem Lett, 2003).
# Columns and labels:
# MCF7 [1] = experiment: (§1) Inhibitory activity of compound against breast cancer cell line MCF-7, following 72 hr treatment; assay type: functional; settings: Homo sapiens, MCF7, 72 h
# MDA-MB-468 [2] = experiment: (§2) Inhibitory activity of compound against breast cancer cell line MDA 468, following 72 hr treatment; assay type: functional; settings: Homo sapiens, MDA-MB-468, 72 h
# MDA-MB-468 [3] = experiment: as §2; assay type: functional, cell-based; settings: Homo sapiens, MDA-MB-468, 72 h
# MCF7 [4] = experiment: as §1; assay type: functional, cell-based; settings: Homo sapiens, MCF7, 72 h
# OVCAR-4 = experiment: Compound tested for growth inhibition of ovarian cancer cell line OVCAR-4; assay type: functional; settings: Homo sapiens
# SNB-19 = experiment: Compound tested for growth inhibition of CNS cancer cell line SNB-19; assay type: functional; settings: Homo sapiens
# HCT-15 = experiment: Compound tested for growth inhibition of colon cancer cell line HCT-15; assay type: functional; settings: Homo sapiens
# Hs-578T = experiment: Compound tested for growth inhibition of breast cancer cell line HS 578T; assay type: functional; settings: Homo sapiens
# HOP-62 = experiment: Compound tested for growth inhibition of non-small cell lung cancer cell line HOP-62; assay type: functional; settings: Homo sapiens
# KM12 = experiment: Compound tested for growth inhibition of colon cancer cell line KM12; assay type: functional; settings: Homo sapiens
# CAKI-1 = experiment: Compound tested for growth inhibition of renal cancer cell line CAKI-1; assay type: functional; settings: Homo sapiens
# M14 = experiment: Compound tested for growth inhibition of melanoma cell line M14; assay type: functional; settings: Homo sapiens
# SK-MEL-28 = experiment: Compound tested for growth inhibition of melanoma cell line SK-MEL-28; assay type: functional; settings: Homo sapiens
# NCI/ADR-RES = experiment: Compound tested for growth inhibition of breast cancer cell line NCI/ADR-RES; assay type: functional; settings: Homo sapiens
# OVCAR-3 = experiment: Compound tested for growth inhibition of ovarian cancer cell line OVCAR-3; assay type: functional; settings: Homo sapiens
# RXF 393 = experiment: Compound tested for growth inhibition of renal cancer cell line RFX 393; assay type: functional; settings: Homo sapiens
# U-251 = experiment: Compound tested for growth inhibition of CNS cancer cell line U251; assay type: functional; settings: Homo sapiens
# IGROV-1 = experiment: Compound tested for growth inhibition of ovarian cancer cell line […]; assay type: functional; settings: Homo sapiens
# Malme-3M = experiment: Compound tested for growth inhibition of melanoma cell line MALME-3M; assay type: functional; settings: Homo sapiens
# NCI-H23 = experiment: Compound tested for growth inhibition of non-small cell lung cancer cell line NCI-H23; assay type: functional; settings: Homo sapiens
# SK-MEL-2 = experiment: Compound tested for growth inhibition of melanoma cell line SK-MEL-2; assay type: functional; settings: Homo sapiens
# A498 = experiment: Compound tested for growth inhibition of renal cancer cell line A498; assay type: functional; settings: Homo sapiens
# UACC-62 = experiment: Compound tested for growth inhibition of melanoma cell line UACC-62; assay type: functional; settings: Homo sapiens
# HT-29 = experiment: Compound tested for growth inhibition of colon cancer cell line HT-29; assay type: functional; settings: Homo sapiens
# T47D = experiment: Compound tested for growth inhibition of breast cancer cell line T-47-D; assay type: functional; settings: Homo sapiens
# SNB-75 = experiment: Compound tested for growth inhibition of CNS cancer cell line SNB-75; assay type: functional; settings: Homo sapiens
# MDA-MB-435 = experiment: Compound tested for growth inhibition of breast cancer cell line MDA-MB-435; assay type: functional; settings: Homo sapiens
# MDA-MB-231 = experiment: Compound tested for growth inhibition of breast cancer cell line MDA-MB-231/ATCC; assay type: functional; settings: Homo sapiens
# K562 = experiment: Compound tested for growth inhibition of leukemia cell line K-562; assay type: functional; settings: Homo sapiens
# MDA-N = experiment: Compound tested for growth inhibition of breast cancer cell line MDA-N; assay type: functional; settings: Homo sapiens
# HOP-92 = experiment: Compound tested for growth inhibition of non-small cell lung cancer cell line HOP-92; assay type: functional; settings: Homo sapiens
# SK-MEL-5 = experiment: Compound tested for growth inhibition of melanoma cell line SK-MEL-5; assay type: functional; settings: Homo sapiens
# MCF7 [5] = experiment: Compound tested for growth inhibition of breast cancer cell line MCF-7; assay type: functional; settings: Homo sapiens
# OVCAR-5 = experiment: Compound tested for growth inhibition of ovarian cancer cell line OVCAR-5; assay type: functional; settings: Homo sapiens
# UACC-257 = experiment: Compound tested for growth inhibition of melanoma cell line UACC-257; assay type: functional; settings: Homo sapiens
# TK-10 = experiment: Compound tested for growth inhibition of renal cancer cell line TK-10; assay type: functional; settings: Homo sapiens
# PC-3 = experiment: Compound tested for growth inhibition of prostate cancer cell line PC-3; assay type: functional; settings: Homo sapiens
# 786-0 = experiment: Compound tested for growth inhibition of renal cancer cell line 786-0; assay type: functional; settings: Homo sapiens
# SK-OV-3 = experiment: Compound tested for growth inhibition of ovarian cancer cell line SK-OV-3; assay type: functional; settings: Homo sapiens
# SN12C = experiment: Compound tested for growth inhibition of renal cancer cell line SN12C; assay type: functional; settings: Homo sapiens
# NCI-H460 = experiment: Compound tested for growth inhibition of non-small cell lung cancer cell line NCI-H460; assay type: functional; settings: Homo sapiens
# RPMI-8226 = experiment: Compound tested for growth inhibition of leukemia cell line RPMI-8226; assay type: functional; settings: Homo sapiens
# BT-549 = experiment: Compound tested for growth inhibition of breast cancer cell line BT-549; assay type: functional; settings: Homo sapiens
# SF-295 = experiment: Compound tested for growth inhibition of CNS cancer cell line SF-295; assay type: functional; settings: Homo sapiens
# OVCAR-8 = experiment: Compound tested for growth inhibition of ovarian cancer cell line OVCAR-8; assay type: functional; settings: Homo sapiens
# ACHN = experiment: Compound tested for growth inhibition of renal cancer cell line ACHN; assay type: functional; settings: Homo sapiens
# HCT-116 = experiment: Compound tested for growth inhibition of colon cancer cell line HCT116; assay type: functional; settings: Homo sapiens
# NCI-H226 = experiment: Compound tested for growth inhibition of non-small cell lung cancer cell line NCI-H226; assay type: functional; settings: Homo sapiens
# NCI-H522 = experiment: Compound tested for growth inhibition of non-small cell lung cancer cell line NCI-H522; assay type: functional; settings: Homo sapiens
# A549 = experiment: Compound tested for growth inhibition of non-small cell lung cancer cell line A549/ATCC; assay type: functional; settings: Homo sapiens
# SW-620 = experiment: Compound tested for growth inhibition of colon cancer cell line SW-620; assay type: functional; settings: Homo sapiens
# LOX IMVI = experiment: Compound tested for growth inhibition of melanoma cell line LOX IMVI; assay type: functional; settings: Homo sapiens
# DU-145 = experiment: Compound tested for growth inhibition of prostate cancer cell line DU-145; assay type: functional; settings: Homo sapiens
# SF-268 = experiment: Compound tested for growth inhibition of CNS cancer cell line SF-268; assay type: functional; settings: Homo sapiens
# NCI-H322M = experiment: Compound tested for growth inhibition of non-small cell lung cancer cell line NCI-H322M; assay type: functional; settings: Homo sapiens
# UO-31 = experiment: Compound tested for growth inhibition of renal cancer cell line UO-31; assay type: functional; settings: Homo sapiens
# HCC 2998 = experiment: Compound tested for growth inhibition of colon cancer cell line HCC2998; assay type: functional; settings: Homo sapiens
# MOLT-4 = experiment: Compound tested for growth inhibition of leukemia cell line MOLT-4; assay type: functional; settings: Homo sapiens
# SF-539 = experiment: Compound tested for growth inhibition of CNS cancer cell line SF-539; assay type: functional; settings: Homo sapiens
compound,measurement,setting,value
N#Cc1cc(-c2nc3ccc(F)cc3s2)ccc1N,GI50,MCF7 [1],820 nM
same,GI50,MDA-MB-468 [2],320 nM
N#Cc1cc(-c2nc3ccccc3s2)ccc1N,GI50,MCF7 [1],580 nM
same,GI50,MDA-MB-468 [2],340 nM
C#Cc1cc(-c2nc3ccccc3s2)ccc1N,GI50,MCF7 [1],49 nM
same,GI50,MDA-MB-468 [2],15 nM
C[Si](C)(C)C#Cc1cc(-c2nc3cc(F)ccc3s2)ccc1N,GI50,MCF7 [1],160 nM
same,GI50,MDA-MB-468 [2],210 nM
C[Si](C)(C)C#Cc1cc(-c2nc3c(F)cccc3s2)ccc1N,GI50,MCF7 [1],520 nM
same,GI50,MDA-MB-468 [2],230 nM
C#Cc1cc(-c2nc3ccc(F)cc3s2)ccc1N,GI50,MCF7 [1],110 nM
same,GI50,MDA-MB-468 [2],23 nM
C#Cc1cc(-c2nc3cc(F)ccc3s2)ccc1N,GI50,MCF7 [1],11 nM
same,GI50,MDA-MB-468 [2],6.8 nM
Nc1ccc(-c2nc3ccccc3s2)cc1,IC50,MDA-MB-468 [3],< 1 nM
same,IC50,MCF7 [4],< 1 nM
N#Cc1cc(-c2nc3c(F)cccc3s2)ccc1N,GI50,MCF7 [1],180 nM
same,GI50,MDA-MB-468 [2],80 nM
C[Si](C)(C)C#Cc1cc(-c2nc3ccc(F)cc3s2)ccc1N,GI50,MCF7 [1],680 nM
same,GI50,MDA-MB-468 [2],400 nM
N#Cc1cc(-c2nc3cc(F)ccc3s2)ccc1N,GI50,OVCAR-4,1380 nM
same,GI50,SNB-19,9120 nM
same,GI50,HCT-15,389 nM
same,GI50,Hs-578T,8510 nM
same,GI50,HOP-62,17000 nM
same,GI50,KM12,97.7 nM
same,GI50,CAKI-1,> 100000 nM
same,GI50,M14,25700 nM
same,GI50,SK-MEL-28,> 100000 nM
same,GI50,NCI/ADR-RES,> 100000 nM
same,GI50,OVCAR-3,28200 nM
same,GI50,RXF 393,2400 nM
same,GI50,U-251,8710 nM
same,GI50,IGROV-1,< 10 nM
same,GI50,Malme-3M,> 100000 nM
same,GI50,NCI-H23,< 10 nM
same,GI50,SK-MEL-2,13500 nM
same,GI50,A498,8510 nM
same,GI50,UACC-62,6610 nM
same,GI50,HT-29,1620 nM
same,GI50,T47D,14.4 nM
same,GI50,SNB-75,832 nM
same,GI50,MDA-MB-435,> 100000 nM
same,GI50,MDA-MB-231,7410 nM
same,GI50,K562,> 100000 nM
same,GI50,MDA-N,> 100000 nM
same,GI50,HOP-92,2630 nM
same,GI50,SK-MEL-5,537 nM
same,GI50,MCF7 [1],5.7 nM
same,GI50,MCF7 [5],< 10 nM
same,GI50,OVCAR-5,37.1 nM
same,GI50,UACC-257,> 100000 nM
same,GI50,TK-10,30.2 nM
same,GI50,PC-3,24000 nM
same,GI50,786-0,31600 nM
same,GI50,SK-OV-3,20900 nM
same,GI50,MDA-MB-468 [2],7.8 nM
same,GI50,SN12C,> 100000 nM
same,GI50,NCI-H460,< 10 nM
same,GI50,RPMI-8226,> 100000 nM
same,GI50,BT-549,3800 nM
same,GI50,SF-295,16600 nM
same,GI50,OVCAR-8,> 100000 nM
same,GI50,ACHN,759 nM
same,GI50,HCT-116,15800 nM
same,GI50,NCI-H226,14500 nM
same,GI50,NCI-H522,28200 nM
same,GI50,A549,214 nM
same,GI50,SW-620,> 100000 nM
same,GI50,LOX IMVI,> 100000 nM
same,GI50,DU-145,51300 nM
same,GI50,SF-268,12000 nM
same,GI50,NCI-H322M,11.5 nM
same,GI50,UO-31,49000 nM
same,GI50,HCC 2998,< 10 nM
same,GI50,MOLT-4,> 100000 nM
same,GI50,SF-539,8710 nM
C[Si](C)(C)C#Cc1cc(-c2nc3ccccc3s2)ccc1N,GI50,MCF7 [1],710 nM
same,GI50,MDA-MB-468 [2],560 nM
C#Cc1cc(-c2nc3c(F)cccc3s2)ccc1N,GI50,MCF7 [1],110 nM
same,GI50,MDA-MB-468 [2],30 nM
